Experimental data reported in patent US20040024024A1, “Aromatic sulfone hydroxamates and their use as protease inhibitors” (priority 2001, published 2004).

Assays:
Human recombinant MMP-2 = molecular target: T1, Human recombinant MMP-2 (Homo sapiens, UniProt P08253); experiment: In vitro MMP inhibition, IC50 determination (fluorogenic substrate I); type: biochemical
T1 construct: made in house; host or cells: MMP-2-transfected p2AHT2 cells
T1 sequence (P08253 110-660): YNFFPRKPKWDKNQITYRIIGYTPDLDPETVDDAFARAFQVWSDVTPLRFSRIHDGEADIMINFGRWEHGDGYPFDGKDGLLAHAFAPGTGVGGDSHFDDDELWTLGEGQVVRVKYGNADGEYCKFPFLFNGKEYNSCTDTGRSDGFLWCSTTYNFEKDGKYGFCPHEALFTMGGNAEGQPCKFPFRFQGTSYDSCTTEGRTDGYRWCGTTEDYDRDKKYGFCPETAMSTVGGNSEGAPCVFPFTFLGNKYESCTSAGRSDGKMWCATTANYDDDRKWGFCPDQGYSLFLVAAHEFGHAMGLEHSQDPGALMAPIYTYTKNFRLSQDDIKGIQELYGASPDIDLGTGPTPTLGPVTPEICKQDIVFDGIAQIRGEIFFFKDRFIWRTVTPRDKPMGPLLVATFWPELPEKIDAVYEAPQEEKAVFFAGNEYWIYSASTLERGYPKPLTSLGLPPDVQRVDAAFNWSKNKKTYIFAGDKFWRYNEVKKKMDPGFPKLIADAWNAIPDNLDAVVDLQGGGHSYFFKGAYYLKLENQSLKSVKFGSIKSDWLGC
Protocol: (§1) Several hydroxamates and salts thereof were analyzed in in vitro assays to determine their ability to inhibit the MMP cleavage of peptide substrates. Inhibition (Ki) and IC50 constants were calculated from the assayed hydroxamate-MMP interactions.
(§2) Human recombinant MMP-1, MMP-2, MMP-9, MMP-13, and MMP-14 were used in this assay. All enzymes were prepared in Assignee's laboratories following usual laboratory procedures. Protocols for the preparation and use of these enzymes are available in the scientific literature. See, e.g., Enzyme Nomenclature (Academic Press, San Diego, Calif., 1992) (and the citations therein). See also, Frije et al., J. Biol. Chem., 26(24), 16766-73 (1994).
The MMP-2 proenzyme was purified by gelatin Sepharose chromatography from MMP-2-transfected p2AHT2 cells provided by Dr. Gregory Goldberg of Washington University (St. Louis, Mo.).
(§3) All MMPs were activated using 4-aminophenylmercuric acetate (“APMA”, Sigma Chemical, St. Louis, Mo.) or trypsin. MMP-9 also was activated using human recombinant MMP-3 (purified in Assignee's laboratory following standard cloning and purification techniques).
(§4) Two fluorogenic, methoxycoumarin-containing polypeptide substrates were used in the MMP inhibition assays:
(§5) MCA-ProLeuGlyLeuDpaAlaArgNH2 (I)
(§6) Here, “Dpa” is 3-(2,4-dinitrophenyl)-L-2,3-diaminopropionyl group, and “MCA” is 7-methoxycoumarin-4-yl acetyl. Substrate (I) was purchased from Baychem (Redwood City, Calif.), and substrate II was prepared Assignee's laboratory. Substrate I was used in the IC50 determination assays, while substrate II was used in the Ki determination assays. In the absence of MMP inhibitory activity, either substrate is cleaved at the Gly-Leu peptide bond. This cleavage separates the highly fluorogenic peptide from the 2,4-dinitrophenyl quencher, thus resulting in increase of fluorescent intensity.
(§7) The stock solutions of the assayed hydroxamates (or salts thereof) were prepared in 1% dimethyl sulfoxide (DMSO). These stock solutions were diluted in Buffer A (100 mM Tris-HCl, 100 mM NaCl, 10 mM CaCl2, 0.05% polyoxyethylene 23 lauryl ether, pH 7.5) to obtain solutions with different hydroxamate concentrations, i.e., assay solutions with different concentrations of the assayed MMP inhibitory compound. The experiment controls contained the same amount of Buffer A/DMSO as the assayed sample, but contained no hydroxamate (or salt thereof).
(§8) The assays from which the IC50 determinations were made were performed as follows. The MMPs were activated with either trypsin or APMA (4-aminophenylmercuric acetate, Sigma Chemical, St. Louis, Mo.). The assayed hydroxamate samples were, incubated in Microfluorrm White Plates (Dynatech, Chantilly, VA) and analyzed on a Perkin Elmer L550 plate reader (Norwalk, Conn.). The excitation wavelength was 328 nm, and the emission wavelength—415 nm. All samples (assayed hydroxamates and controls) were incubated in separate plates at room temperature in the presence of 4 μM of MMP substrate (I). As stated in the previous paragraph, samples containing varying concentrations of the same assayed hydroxamate were prepared. Inhibition was measured as a reduction in fluorescent intensity as a function of MMP inhibitor concentration.

Human recombinant MMP-13 = molecular target: T2, Human recombinant MMP-13 (Homo sapiens, UniProt P45452); experiment: as above; type: biochemical
T2 construct: made in house; host or cells: baculovirus / insect cells
Protocol: as §1, §2
The expressed proenzyme was first purified over a heparin agarose column, and then over a chelating zinc chloride column. The proenzyme was then activated by APMA for use in the assay. Further details on baculovirus expression systems may be found in, for example, Luckow et al., J. Virol., 67, 4566-79 (1993). See also, O'Reilly et al, Baculovirus Expression Vectors: A Laboratory Manual (W. H. Freeman and Co., New York, N.Y., 1992). See also, King et al., The Baculovirus Expression System: A Laboratory Guide (Chapman & Hall, London, England, 1992).
as §3, §4, §5, §6, §7, §8

[1] = substrate (I) 4 μM, room temperature, values not in parenthesis

Structure (SMILES) | IC50 (Human recombinant MMP-2; [1]) [nM] | IC50 (Human recombinant MMP-13; [1]) [nM] | IC50 (Human recombinant MMP-2; value outside parenthesis) [nM] | IC50 (Human recombinant MMP-13; value outside parenthesis) [nM] | IC50 (Human recombinant MMP-13; value outside parentheses (Ki in parenthesis)) [nM]
COc1ccc(C(=O)NCCCOc2ccc(S(=O)(=O)C3(C(=O)NO)CCOCC3)cc2)cc1 [Example 17, tetrahydro-N-hydroxy-4-[[4-[3-[(4-methoxybenzoyl)amino]propoxy]phenyl]sulfonyl]-2H-pyran-4-carboxamide] | 550 | 1.6 | – | – | –
O=C(NO)C1(S(=O)(=O)c2ccc(OCCCc3ccc4ccccc4c3)cc2)CCOCC1 [Example 36] | 95 | 2.4 | – | – | –
COCCN1CCC(C(=O)NO)(S(=O)(=O)c2ccc(OCCCc3nc(-c4ccc(CCC(C)C)cc4C)no3)cc2)CC1 [Example 100] | – | – | 1690 | 153 | –
COCCN1CCC(C(=O)NO)(S(=O)(=O)c2ccc(OCCCN3C(=O)[C@@H](C)N(c4ccccc4)C3=O)cc2)CC1 [Example 108] | – | – | 434 | 20 | –
NC(=O)c1cccc(-c2noc(CCCOc3ccc(S(=O)(=O)C4(C(=O)NO)CCN(C5CC5)CC4)cc3)n2)c1 [Example 131] | – | – | 108 | 4.5 | –
O=C(NO)C1(S(=O)(=O)c2ccc(OCc3nc(-c4ccc(OC(F)(F)F)cc4)no3)cc2)CCOCC1 [Example 132] | – | – | 61.7 | 3.7 | –
O=C1CN(c2ccc(OC(F)(F)F)cc2)C(=O)N1CCCOc1ccc(S(=O)(=O)C2(C(=O)NO)CCN(C3CC3)CC2)cc1 [Example 133] | – | – | 84.4 | 4.3 | –
C[C@@H]1C(=O)N(CCCOc2ccc(S(=O)(=O)C3(C(=O)NO)CCOCC3)cc2)C(=O)N1c1ccc(OC(F)(F)F)cc1 [Example 136] | – | – | 229 | 4.4 | –
O=C(NO)C1(S(=O)(=O)c2ccc(OCCCc3cccc(-c4ccccn4)c3)cc2)CCOCC1 [Example 153] | – | – | 192 | 7.6 | –
O=C(NO)C1(S(=O)(=O)c2ccc(OCCCc3cccc(-c4cc(F)cc(F)c4)c3)cc2)CCOCC1 [Example 159] | – | – | 1370 | 24.4 | –
COc1ccc(C(=O)C(C#N)CCOc2ccc(S(=O)(=O)C3(C(=O)NO)CCOCC3)cc2)cc1 (stereo not drawn) [Example 176] | – | – | 109 | 7.8 | –
C[C@H]1C(=O)N(CCCOc2ccc(S(=O)(=O)C3(C(=O)NO)CCOCC3)cc2)C(=O)N1c1ccccc1 [Example 177] | – | – | 333 | 17 | –
CC(C)Cc1ccc(-c2nnc(CCCOc3ccc(S(=O)(=O)C4(C(=O)NO)CCOCC4)cc3)o2)cc1 [Example 179] | – | – | 247 | 1.1 | –
COCCN1CCC(C(=O)NO)(S(=O)(=O)c2ccc(OCCCn3nnc(-c4ccccc4OC)n3)cc2)CC1 [Example 180] | – | – | 443 | 17 | –
CC(C)c1ccc(N2CCN(CCCOc3ccc(S(=O)(=O)C4(C(=O)NO)CCOCC4)cc3)C2=O)cc1 [Example 186] | – | – | 610 | 13.5 | –
CCCCc1ccc(N2CCN(CCCOc3ccc(S(=O)(=O)C4(C(=O)NO)CCOCC4)cc3)C2=O)cc1 [Example 192] | – | – | 1260 | 15.4 | –
COCCN1CCC(C(=O)NO)(S(=O)(=O)c2ccc(OCCCn3nc(C(F)(F)F)cc3-c3ccc(OC)cc3)cc2)CC1 [Example 198] | – | – | 4530 | 835 | –
COCCN1CCC(C(=O)NO)(S(=O)(=O)c2ccc(OCCCn3ncc(-c4ccc(OC)cc4)c3C(F)(F)F)cc2)CC1 [Example 202] | – | – | 1600 | 41.9 | –
COc1ccc(C(=O)N(C)CCCOc2ccc(S(=O)(=O)C3(C(=O)NO)CCOCC3)cc2)cc1 [Example 205] | – | – | 4780 | 17.6 | –
O=C(NO)C1(S(=O)(=O)c2ccc(OCCCc3nc(-c4cc(C(F)(F)F)cc(C(F)(F)F)c4)no3)cc2)CCOCC1 [Example 216] | – | – | 1950 | 51.2 | –
CC(=O)NC(C)(C)CCOc1ccc(S(=O)(=O)C2(C(=O)NO)CCN(C3CC3)CC2)cc1 [Example 221] | – | – | 8800 | 244 | –
COCCN1CCC(C(=O)NO)(S(=O)(=O)c2ccc(OCCCn3cc(-c4ccc(F)cc4)cn3)cc2)CC1 [Example 222] | – | – | 138 | 13.3 | –
COCCN1CCC(C(=O)NO)(S(=O)(=O)c2ccc(OCCCn3ccc(-c4ccc(OC)cc4)n3)cc2)CC1 [Example 223] | – | – | 69.7 | 11.9 | –
COc1ccc(C(=O)NC(C)(C)CCOc2ccc(S(=O)(=O)C3(C(=O)NO)CCNCC3)cc2)cc1 [Example 225] | – | – | 2330 | 17.8 | –
COCCN1CCC(C(=O)NO)(S(=O)(=O)c2ccc(OCCCn3cc(-c4cccc(OC)c4)cn3)cc2)CC1 [Example 235] | – | – | 422 | 26 | –
CS(=O)(=O)c1ccccc1S(=O)(=O)N1CC(Oc2ccc(S(=O)(=O)C3(C(=O)NO)CCOCC3)cc2)C1 [Example 483] | – | – | – | – | 29

Now from value to compound:

IC50 (Human recombinant MMP-2; [1]) [nM] | IC50 (Human recombinant MMP-13; [1]) [nM] | IC50 (Human recombinant MMP-2; value outside parenthesis) [nM] | IC50 (Human recombinant MMP-13; value outside parenthesis) [nM] | IC50 (Human recombinant MMP-13; value outside parentheses (Ki in parenthesis)) [nM] | Structure (SMILES)
– | – | 17.8 | 3.7 | – | CC(C)c1cccc(CCCOc2ccc(S(=O)(=O)C3(C(=O)NO)CCOCC3)cc2)c1 [Example 94]
– | – | 39.1 | 15.3 | – | CC(C)CCc1cccc(CCCOc2ccc(S(=O)(=O)C3(C(=O)NO)CCOCC3)cc2)c1 [Example 96]
– | – | 18.2 | 0.2 | – | O=C(NCCCOc1ccc(S(=O)(=O)C2(C(=O)NO)CCOCC2)cc1)c1cc2ccccc2o1 [Example 101]
– | – | 44.2 | 0.8 | – | COCCN1CCC(C(=O)NO)(S(=O)(=O)c2ccc(OCCCn3nnc(-c4ccc(S(C)(=O)=O)cc4)n3)cc2)CC1 [Example 104]
– | – | 34 | 5.5 | – | O=C(NO)C1(S(=O)(=O)c2ccc(OCCCc3csc(-c4ccccc4)n3)cc2)CCOCC1 [Example 107]
– | – | 32.5 | 3.6 | – | COCCN1CCC(C(=O)NO)(S(=O)(=O)c2ccc(OCCCn3nnc(-c4cc(F)ccc4C)n3)cc2)CC1 [Example 141]
– | – | 4.9 | 1.4 | – | COCCN1CCC(C(=O)NO)(S(=O)(=O)c2ccc(OCCCn3nnc(-c4cccs4)n3)cc2)CC1 [Example 143]
– | – | 11.1 | 0.4 | – | COCCN1CCC(C(=O)NO)(S(=O)(=O)c2ccc(OCCCn3nnc(-c4ccc5c(c4)OCO5)n3)cc2)CC1 [Example 146]
– | – | 38.4 | 2.6 | – | COCCN1CCC(C(=O)NO)(S(=O)(=O)c2ccc(OCCCn3nnc(-c4ccccc4C)n3)cc2)CC1 [Example 151]
– | – | 32.1 | 1 | – | CCOc1ccc(-c2nnn(CCCOc3ccc(S(=O)(=O)C4(C(=O)NO)CCN(CCOC)CC4)cc3)n2)cc1 [Example 156]
– | – | 32.2 | 11.4 | – | O=C1N(CCCOc2ccc(S(=O)(=O)C3(C(=O)NO)CCOCC3)cc2)CCN1c1ccccc1 [Example 196]
– | – | 2.7 | 0.2 | – | CC(C)c1ccc(NC(=O)CCCOc2ccc(S(=O)(=O)C3(C(=O)NO)CCOCC3)cc2)cc1 [Example 227]
